Source: article PMC10709440, “High-throughput ligand profile characterization in novel cell lines expressing seven heterologous insect olfactory receptors for the detection of volatile plant biomarkers” (Scientific Reports, 2023)
pEC50: −log10 of the molar value. “And” between values parts separate entries of the source, which are not always exact repeats. Equal entries are not always repeated. Where two headings read alike, the source gives them in different places.

Columns and labels:
Drosophila OR49b = biological target: T1, Drosophila OR49b (Drosophila melanogaster, UniProt Q9V6H2); assay: cell-based; settings: for Average response: mean of biological replicates; for activation at 1 µM / activation at 10 µM / activation at 100 µM: HEK293
T1 construct: expressed in transfected cells
T1 sequence (Q9V6H2 1-375): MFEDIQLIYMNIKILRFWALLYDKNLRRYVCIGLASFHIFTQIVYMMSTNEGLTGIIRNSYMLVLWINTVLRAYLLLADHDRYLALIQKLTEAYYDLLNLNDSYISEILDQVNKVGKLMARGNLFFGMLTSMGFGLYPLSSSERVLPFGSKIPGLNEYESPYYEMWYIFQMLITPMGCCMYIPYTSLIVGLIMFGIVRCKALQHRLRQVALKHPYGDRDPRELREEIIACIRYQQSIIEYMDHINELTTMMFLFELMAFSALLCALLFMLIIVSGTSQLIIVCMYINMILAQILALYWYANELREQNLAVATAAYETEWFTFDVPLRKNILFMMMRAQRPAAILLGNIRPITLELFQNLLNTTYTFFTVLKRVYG
T1 sequence (Q9VNB5 1-486 partner): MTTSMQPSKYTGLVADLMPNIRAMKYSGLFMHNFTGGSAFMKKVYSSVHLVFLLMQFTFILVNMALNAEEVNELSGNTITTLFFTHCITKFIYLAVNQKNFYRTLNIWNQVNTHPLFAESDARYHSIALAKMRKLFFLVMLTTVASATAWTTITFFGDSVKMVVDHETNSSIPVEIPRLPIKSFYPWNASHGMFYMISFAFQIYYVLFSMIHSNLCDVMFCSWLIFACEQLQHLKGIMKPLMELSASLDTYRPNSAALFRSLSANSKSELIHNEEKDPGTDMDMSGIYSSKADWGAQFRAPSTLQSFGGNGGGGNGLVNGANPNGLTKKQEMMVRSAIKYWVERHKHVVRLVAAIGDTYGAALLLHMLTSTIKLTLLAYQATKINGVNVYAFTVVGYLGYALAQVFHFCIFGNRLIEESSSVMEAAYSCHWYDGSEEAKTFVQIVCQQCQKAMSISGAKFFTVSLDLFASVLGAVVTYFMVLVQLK
Experimental: (§1) These VUAA1 normalized ∆F values were used to compare the different receptors and ligands.
(§2) The concentration-dependent effect of the reference ligands on their cognate cell lines was examined in more detail. Twelve different ligand concentrations were measured on each cell line in an overall 0.01 μM to 100 μM concentration range with 5 repetitions with three technical replicates each time.
(§3) Twelve thousand to 18,000 cells were plated into each well of a black wall, transparent bottom 384-well microplate (Greiner) 48 h or 72 h before the measurements and were simultaneously treated with 1 μg/mL doxycycline. […] The plate has 24 columns, thus we could record responses in up to eight different cell lines in each plate. On the day of the experiment, the growth medium was replaced with 20 µL assay buffer/well (140 mM NaCl, 5 mM KCl, 2 mM CaCl2, 1 mM MgCl2, 5 mM HEPES-Na, 20 mM glucose, pH 7.3, 340 mOsm). […] Baseline fluorescence (F0) was recorded for 5 s, after which 7 µL VOC buffer (140 mM NaCl, 5 mM KCl, 2 mM CaCl2, 1 mM MgCl2, 5 mM HEPES-Na, 31 mM glucose, 0.1% DMSO, pH 7.3, 340 mOsm) was injected into each well in one row and the fluorescence response was recorded for an additional 30 s, at a rate of one read/sec. VOC solutions (VOC buffer with 4× concentration of the final measured VOC concentration, 9 µL/well was injected) were measured on the same wells in a second round with the same protocol. Each individual concentration of a specific VOC sample was recorded in three wells for the same cell line on the same microplate. The raw data were exported in xls file format, F0 and FMAX values, and the fluorescence intensity changes (∆F) were calculated in Excel (Microsoft) (Supplementary file Data summary.xlsx) using the following equation: ΔF=FMAX-F0/F0 (see also Fig. 1C). On each plate, we recorded the response of each cell line to 50 µM VUAA1. The average of these ∆F values of each cell line were used to calculate the VUAA1-normalized values for the rest of the plate, by dividing VOC response ∆F values by the average VUAA1 response ∆F value of the corresponding OR cell line. Each VOC-OR combination was measured three times as technical replicates. […] The average of these replicates were used as one ∆F and VUAA1-normalized ∆F in the following analysis.
(§4) In the next rows we tested the reference VOCs (or other VOCs known to activate the corresponding cell lines), in order to test if all cell lines are responsive. The remaining rows were used to test VOCs with unknown effect.
(§5) The recorded FMAX, F0, ∆F, VUAA1-normalized ∆F values, as well as the OR name, the name of the tested sample, and the final concentration for each well were copied into supplementary file Data summary.xlsx, that was used to summarize all the plates recorded. Here, the averages of the measurements were calculated for each receptor-VOC-concentration combination.

Drosophila OR71a = biological target: T2, Drosophila OR71a (Drosophila melanogaster, UniProt Q9VUK5); assay: Calcium ion fluorescence (GCaMP6) assay, OR71a stable HEK293 cell line; type: cell-based; settings: for OR71a response (VUAA1-normalized) at 1 μM / OR71a response (VUAA1-normalized) at 10 μM / OR71a response (VUAA1-normalized) at 100 μM / Average response: OR71a cell line; for OR71a response (VUAA1-normalized) at 1 μM: VOC concentration 1 μM; for OR71a response (VUAA1-normalized) at 10 μM: VOC concentration 10 μM; for OR71a response (VUAA1-normalized) at 100 μM: VOC concentration 100 μM; for Average response: VUAA1-normalized response, mean of biological replicates
T2 construct: expressed in transfected cells
T2 sequence (Q9VUK5 1-378): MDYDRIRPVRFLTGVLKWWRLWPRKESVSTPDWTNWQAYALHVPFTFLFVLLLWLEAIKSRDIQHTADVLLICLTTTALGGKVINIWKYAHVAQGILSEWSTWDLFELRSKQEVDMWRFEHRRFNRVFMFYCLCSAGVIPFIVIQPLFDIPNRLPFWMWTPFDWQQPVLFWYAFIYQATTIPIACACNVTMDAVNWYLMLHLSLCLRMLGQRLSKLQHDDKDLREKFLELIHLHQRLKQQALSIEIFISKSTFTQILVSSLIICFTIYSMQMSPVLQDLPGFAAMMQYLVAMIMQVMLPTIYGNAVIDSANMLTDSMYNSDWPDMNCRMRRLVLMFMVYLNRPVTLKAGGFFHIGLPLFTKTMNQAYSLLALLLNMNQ
T2 sequence (Q9VNB5 1-486 partner): T1 sequence (Q9VNB5 1-486 partner)
Experimental: as §1, §2, §3, §4, §5

[1] = OR49b cell line, VOC concentration 1 μM
[2] = OR49b cell line, VOC concentration 10 μM
[3] = OR49b cell line, VOC concentration 100 μM
[4] = OR49b cell line, odorant cc. 1 µM
[5] = OR49b cell line, odorant cc. 10 µM
[6] = OR49b cell line, odorant cc. 100 µM
[7] = ligand concentration 1 (unit not given), threshold 0.05, below shown as 0
[8] = ligand concentration 10 (unit not given), threshold 0.05, below shown as 0
[9] = ligand concentration 100 (unit not given), threshold 0.05, below shown as 0
[10] = ligand concentration 1 (unit not given), 0.05 threshold, values below shown as 0
[11] = ligand concentration 10 (unit not given), 0.05 threshold, values below shown as 0
[12] = ligand concentration 100 (unit not given), 0.05 threshold, values below shown as 0
[13] = HEK293, read-out: OR71a response (VUAA1-normalized response)

Compound	OR49b response (VUAA1-normalized) at 1 μM (Drosophila OR49b; [1])	OR49b response (VUAA1-normalized) at 10 μM (Drosophila OR49b; [2])	OR49b response (VUAA1-normalized) at 100 μM (Drosophila OR49b; [3])	Average response (Drosophila OR49b; [4])	Average response (Drosophila OR49b; [5])	Average response (Drosophila OR49b; [6])	DF norm AVERAGE OR49b (Drosophila OR49b; [7])	DF norm AVERAGE OR49b (Drosophila OR49b; [8])	DF norm AVERAGE OR49b (Drosophila OR49b; [9])	OR71a response (VUAA1-normalized) at 1 μM (Drosophila OR71a)	OR71a response (VUAA1-normalized) at 10 μM (Drosophila OR71a)	OR71a response (VUAA1-normalized) at 100 μM (Drosophila OR71a)	Average response (Drosophila OR71a; cc. 1 µM)	Average response (Drosophila OR71a; cc. 10 µM)	Average response (Drosophila OR71a; cc. 100 µM)	DF norm AVERAGE OR71a (Drosophila OR71a; [7])	DF norm AVERAGE OR71a (Drosophila OR71a; [8])	DF norm AVERAGE OR71a (Drosophila OR71a; [9])	DF norm AVERAGE OR71a (Drosophila OR71a; [10])	DF norm AVERAGE OR71a (Drosophila OR71a; [11])	further results
CCCCCCCCC=O [nonanal]	0.00	0.00	0.00	0.00	0.00	0.00	0	0	0	0.00	0.00	0.00	0.00	0.00	0.00	0	0	0	–	–	–
Cc1ccccc1 [toluene]	0.00	0.00	0.44	0.00	0.00	0.44	–	–	–	0.00	0.00	0.00	0.00	0.00	0.00	–	–	–	0	0	activation at 1 µM (Drosophila OR49b; 1 μM VOC, 50 μM VUAA1 = 1, read-out: OR49b Average response (VUAA1-normalized)): 0%; activation at 10 µM (Drosophila OR49b; 10 μM VOC, 50 μM VUAA1 = 1, read-out: OR49b Average response (VUAA1-normalized)): 0%; activation at 100 µM (Drosophila OR49b; 100 μM VOC, 50 μM VUAA1 = 1, read-out: OR49b Average response (VUAA1-normalized)): 44%; DF norm AVERAGE OR49b (Drosophila OR49b; [10]): 0; DF norm AVERAGE OR49b (Drosophila OR49b; [11]): 0; DF norm AVERAGE OR49b (Drosophila OR49b; ligand concentration 100 (unit not given), […]): 0.4351; DF norm AVERAGE OR71a (Drosophila OR71a; [12]): 0
CCCC(=O)OCC [ethyl butyrate]	–	–	–	0.00	0.00	0.00	0	0	0	–	–	–	0.00	0.00	0.00	0	0	0	–	–	activation at 1 µM (Drosophila OR49b; VOC concentration 1 μM, read-out: OR49b response (VUAA1-normalized response)): 0%; activation at 10 µM (Drosophila OR49b; VOC concentration 10 μM, read-out: OR49b response (VUAA1-normalized response)): 0%; activation at 100 µM (Drosophila OR49b; VOC concentration 100 μM, read-out: OR49b response (VUAA1-normalized response)): 0%; activation at 1 µM (Drosophila OR71a; [13]): 0%; activation at 10 µM (Drosophila OR71a; [13]): 0%; activation at 100 µM (Drosophila OR71a; [13]): 0%
C=Cc1ccccc1 [styrene]	–	–	–	–	–	–	–	–	–	0.00	0.00	0.00	0.027	0.0458	0.00724	–	–	–	0	0	pEC50 (Drosophila OR49b; AVERAGE EC50, OR49b, printed with 95% confidence interval, matches the average LOG EC50): 4.68; pEC50 (Drosophila OR49b; EC50 (fitted parameter), OR49b, fit of each biological replicate): 4.78 and 4.76; pEC50 (Drosophila OR49b; EC50, AVERAGE, OR49b, arithmetic average of 5 replicate EC50): 4.60; pEC50 (Drosophila OR49b; LOG EC50 (fitted parameter), OR49b, fit of each biological replicate, log of EC50, unit inferred): 4.33; pEC50 (Drosophila OR49b; OR49b cell line, fitted Hill equation, Hill coefficient constrained to 1, maximal response max 1, read-out: EC50): 4.68; EC50 (Drosophila OR49b; OR49b, average of 5 biological replicates, read-out: LOG EC50, AVERAGE (converted)): 21.1 µM; EC50 (Drosophila OR49b; OR49b, fit of each biological replicate, log of EC50, unit inferred, read-out: LOG EC50 (fitted parameter) (converted)): 34.6 µM and 16.6 µM and 17.3 µM and 8.95 µM; pEC50 (Drosophila OR49b; OR49b, fit of each biological replicate, read-out: EC50 (fitted parameter)): 4.46 and 4.33 and 5.05; pEC50 (Drosophila OR49b; OR49b, fit of the averaged curve, read-out: EC50, FITTED AVERAGE CURVE): 4.61; DF norm AVERAGE OR71a (Drosophila OR71a; [12]): 0
